US8236510B2, “Protein showing enhanced expression in cancer cells” (Agensys, Inc., priority 1999, dated 2012)
Entries after “also recorded” stand apart in the source; their conditions may differ. Ends that are not written are not given here.

How the values were obtained:
[1] = tested on: ERK phosphorylation in PC3-101P3A11 cells; assay: ERK phosphorylation in PC3-101P3A11 and PC3-neo cells (anti-Phospho-ERK Western blot); type: cell-based, human; conditions: for inhibition of ERK phosphorylation and activation: PC3-101P3A11 and 3T3-101P3A11 cells, FBS
Method: Using Western blotting and other techniques, the ability of 101P3A11 to regulate these pathways is confirmed. Cells expressing or lacking 101P3A11 are either left untreated or stimulated with cytokines, androgen and anti-integrin antibodies. Cell lysates were analyzed using anti-phospho-specific antibodies (Cell Signaling, Santa Cruz Biotechnology) in order to detect phosphorylation and regulation of ERK, p38, AKT, PI3K, PLC and other signaling molecules. […] In the experiment, data shown in FIG. 26, control 3T3-neo and 3T3-101P3A11 cells were either treated with 0.5 or 10% FBS and whole cell lysates were analyzed by anti-phosphotyrosine Western blotting.
In this experiment, control PC3-neo cells and PC3-101P3A11 cells were left untreated (0.1% FBS) or were stimulated with 10% FBS, lipophosphatidic acid (LPA), gastrin releasing peptide (GRP), leukotriene (LKB4) or platelet activating factor (PAF). The cells were lysed and analyzed by Western blotting using anti-Phospho-ERK (FIG. 27A) or anti-ERK (FIG. 27B) mAb. […] In order to delineate the signaling pathway by which 101P3A11 mediates ERK phosphorylation in cancer cells, it was confirmed which of the two pathway inhibitors: MEK inhibitor PD98059 or the p38 inhibitor SB203580 regulate 101P3A11 mediated ERK phosphorylation (FIG. 28). […] Cells were lysed and analyzed by Western blotting using anti-Phospho-ERK or anti-ERK mAb. Treatment with 10% FBS or with GRP induced the phosphorylation of ERK in PC3-101P3A11 but not in control PC3-neo cells. 101P3A11-mediated ERK phosphorylation was inhibited by the MEK-1 inhibitor PD98059 but not the p38 inhibitor SB203580 or genistein.
Results in FIGS. 26-28 indicate that 101P3A11 regulates the activity of kinases, including ERK, and phosphatases. In order to confirm the association of 101P3A11 with phosphatase activity, the effect of the protein phosphatase inhibitor sodium orthovanadate on 101P3A11 mediated ERK phosphorylation was determined (FIG. 29). PC3-neo and PC3-101P3A11 cells were grown in media alone or in the presence of sodium orthovanadate (Na3VO4), and were stimulated with 0.1% or 10% FBS. Cells were lysed and analyzed by Western blotting using anti-Phospho-ERK or anti-ERK mAb. […] Results in FIG. 29 confirm the contribution of protein phosphatases to 101P3A11 mediated signaling.
In order to determine whether 101P3A11 signaling results in the activation of EGFR, we compared the effect of the EGFR inhibitor, AG1517, on EGFR- and 101P3A11-mediated ERK phosphorylation (FIG. 30). In FIG. 30, PC3-neo and PC3-101P3A11 cells were grown in media alone (0.1% FBS) or in the presence of AG1517. The cells were stimulated with 0.1% or 10% FBS, GRP or EGF, lysed and analyzed by Western blotting using anti-Phospho-ERK or anti-ERK mAb. Treatment with 10% FBS, GRP and EGF induced ERK phosphorylation in PC3-101P3A11 cells. […] Data in FIG. 30 indicate that some cross talk occurred between 101P3A11 and EGFR signaling pathways.
(§1) Since adenylate cyclase activity modulates intracellular levels of cAMP and induce downstream signaling events such as activation of protein kinase A, calcium and ERK MAPK signaling (Pierce K. L., et al, Oncogene. 2001, 20: 1532), we determined that PTX, an inhibitor of adenylate cyclase signaling, prevents 101P3A11-mediated ERK phosphorylation along with inhibiting cAMP accumulation (FIG. 33 and FIG. 34). PC3-neo and PC3-101P3A11 cells were grown overnight in 0.1% FBS in media alone or in the presence of pertussis toxin (PTX). Cells were stimulated with 0.1% or 10% FBS (FIG. 33) or 10% FBS, EGF or GRP (FIG. 34). Cells were lysed and analyzed by Western blotting using anti-Phospho-ERK mAb. Expression of 101P3A11 mediated ERK phosphorylation by 10% FBS in PC3 cells, which was inhibited by PTX (FIG. 33 and FIG. 34).
GPCR transmit their signal by activating trimeric G proteins. […]

[2] = tested on: 3T3-101P3A11 cells; assay: Proliferation of 3T3 and 3T3-101P3A11 cells (Alamar blue); type: cell-based; conditions: for effect on proliferation: control 3T3 cells
[3] = tested on: 3T3-101P3A11 tumors; assay: Subcutaneous growth of 3T3-101P3A11 tumors in SCID mice; type: in vivo
Method: (2) Regulated expression under control of an inducible vector system, such as ecdysone, tet, etc., can be used provided such promoters are compatible with the host cell systems. […] FIG. 21 compares subcutaneous growth of control 3T3-neo and 3T3-101P3A11 cells. One million cells stably expressing neo or 101P3A11 were injected subcutaneously in SCID mice along with matrigel. Tumor volume was evaluated by caliper measurements. […] Additionally, SCID mice were implanted with the same 3T3-101P3A11 cells orthotopically in the prostate to determine if 101P3A11 has an effect on local growth in the prostate or on the ability of the cells to metastasize, specifically to lungs or lymph nodes. […] In an analogous manner, cells can be implanted orthotopically in the bladder, colon or kidney. (Saffran, D., et al., PNAS 10:1073-1078; Fu, X., et al., Int. J. Cancer, 1991, 49: p. 938-939; Chang, S., et al., Anticancer Res., 1997, 17: p. 3239-3242; Peralta, E. A., et al., J. Urol., 1999, 162: p. 1806-1811). The tumor enhancing effect of 101P3A11 was also observed when 101P3A11 is expressed in prostate cancer cells such as PC3 and introduced into the prostate of SCID mice (Figure M11). A 2.5 fold increase in tumor weight is observed in tumors expressing 101P3A11 relative to control cells.
Furthermore, these assays is useful to confirm the anti-101P3A11 inhibitory effects of candidate therapeutic compositions, such as for example, 101P3A11 antibodies or intrabodies, and 101P3A11 antisense molecules or ribozymes, or 101P3A11 directed small molecules. In FIG. 22, we depict the effect of a small molecule, pertussis toxin (PTX) on tumor formation by 3T3-101P3A11 cells. In this experiment, SCID mice were injected with 3T3-101P3A11 alone or in conjunction with PTX. Each mouse was given 5 doses of PTX at 3-4 days interval. Tumor volume was evaluated by caliper measurements. […] Similarly, treatment with the G-protein inhibitor suramin inhibits the growth of 3T3-101P3A11 tumors (Figure M13).

[4] = tested on: PC3-101P3A11 cells; assay: Proliferation of PC3-101P3A11 and PC3-neo cells; type: cell-based, human; conditions: PC3-101P3A11 cells grown in 5% FBS
Method: as §1
GPCR transmit their signal by activating trimeric G proteins. Once GPCRs are activated, the associated Ga subunit binds GTP, dissociates from the receptor and participates in downstream signaling events (Schild, D., and Restrepo, D. Physiol Rev. 1998, 78:429-66). In order to determine that inhibition of Ga subunits has an effect on 101P3A11 mediated cell growth, the effect of two Ga inhibitors on the proliferation of 3T3-101P3A11 cells was investigated. Control 3T3 and 3T3-101P3A11 cells were grown in the presence or absence of suramin or its derivative NF 449 (Sigma). Cells were analyzed for proliferation 72 hours later (FIG. 35). The experiment was performed in triplicate. […] This response was 101P3A11 specific as suramin and NF449 had no effect on the proliferation of control 3T3 cells. Similarly, inhibition of G protein activation by suramin and NF449 in PC3 cells inhibits the proliferation of PC3-101P3A11 cells grown in 5% FBS (Figure M4). […] This ERK phosohorylation and activation was inhibited by suramin and NF449 in PC3-101P3A11 and 3T3-101P3A11 cells. ERK phosphorylation was inhibited in a dose dependent manner in PC3-101P3A11 cells treated with suramin. […]

[5] = tested on: LAPC-9 cells; assay: Androgen regulation in LAPC-9 cells (Northern blot); type: cell-based; conditions: charcoal-stripped medium
Method: In order to assay for androgen regulation of 101P3A11 expression, LAPC-9 cells were grown in charcoal-stripped medium and stimulated with the synthetic androgen mibolerone, for either 14 or 24 hours (FIG. 15A, FIG. 15B, and FIG. 15C). Northern blots with 10 μg of total RNA/lane were probed with the 101P3A11 sequences (FIG. 15A). A picture of the ethidium-bromide staining of the RNA gel is also presented (FIG. 15C). […] The experimental samples were confirmed by testing for the expression of the androgen-regulated prostate cancer gene PSA (FIG. 15B).

[6] = 101P3A11 expressing 3T3 cells, Alamar blue after 72 hours

## platelet activating factor [PAF]
[1]; PC3-101P3A11 cells
  ERK phosphorylation by GPCR ligands: significant ERK phosphorylation

## Cc1ccc(C(=O)Nc2ccc(S(=O)(=O)O)c3cc(S(=O)(=O)O)cc(S(=O)(=O)O)c23)cc1NC(=O)c1cccc(NC(=O)Nc2cccc(C(=O)Nc3cc(C(=O)Nc4ccc(S(=O)(=O)O)c5cc(S(=O)(=O)O)cc(S(=O)(=O)O)c45)ccc3C)c2)c1 [suramin]
[2]; 3T3-101P3A11 cells, 72 hours
  inhibition of proliferation: 60%
[2]; [6]
  inhibition of proliferation: inhibited
[2]; 72 hours
  effect on proliferation: no effect
[1]
  inhibition of ERK phosphorylation and activation: inhibited
[3]
  inhibition of growth of 3T3-101P3A11 tumors: inhibits
[4]
  inhibition of proliferation: inhibits

## lipophosphatidic acid [LPA]
[1]; PC3-101P3A11 cells
  ERK phosphorylation by GPCR ligands: significant ERK phosphorylation

## gastrin releasing peptide (VPLPAGGGTVLTKMYPRGNHWAVGHLM; ends and bridges not checked; UniProt P07492 24-50, looked up) [GRP, GPCR ligand]
[1]; PC3-101P3A11 cells
  ERK phosphorylation by GPCR ligands: significant ERK phosphorylation

## COc1cc2ncnc(Nc3cccc(Br)c3)c2cc1OC [AG1517]
[1]; PC3-101P3A11 cells treated with 10% FBS
  inhibition of 101P3A11 mediated ERK phosphorylation: partially inhibits
[1]; control and 101P3A11-expressing PC3 cells, EGF
  inhibition of EGF-mediated ERK phosphorylation: completely inhibited; also recorded: inhibits

## O=C(Nc1cc(C(=O)Nc2ccc(S(=O)(=O)O)cc2S(=O)(=O)O)cc(C(=O)Nc2ccc(S(=O)(=O)O)cc2S(=O)(=O)O)c1)Nc1cc(C(=O)Nc2ccc(S(=O)(=O)O)cc2S(=O)(=O)O)cc(C(=O)Nc2ccc(S(=O)(=O)O)cc2S(=O)(=O)O)c1 [NF449]
[2]; 3T3-101P3A11 cells, 72 hours
  inhibition of proliferation: 80%
[2]; [6]
  inhibition of proliferation: inhibited
[2]; 72 hours
  effect on proliferation: no effect
[1]
  inhibition of ERK phosphorylation and activation: inhibited
[4]
  inhibition of proliferation: inhibits

## [Na+].[Na+].[Na+].[O]=[V]([O-])([O-])[O-] [Na3VO4, sodium orthovanadate]
[1]; PC3-101P3A11 cells
  increase in ERK phosphorylation: 4.5 fold
[1]; PC3-neo cells
  increase in ERK phosphorylation: two-fold increase

## CCCCC/C=C\C[C@@H](O)/C=C/C=C/C=C\[C@@H](O)CCCC(=O)O [LKB4, leukotriene]
[1]; PC3-101P3A11 cells
  ERK phosphorylation by GPCR ligands: more modest level of ERK phosphorylation

## C[C@@H]1CC2=CC(=O)CC[C@@H]2[C@H]2CC[C@@]3(C)[C@@H](CC[C@]3(C)O)[C@@H]21 [mibolerone]
[5]; 14 and 24 hours
  expression of PSA: induced
[5]; 14 or 24 hours
  expression of 101P3A11: not regulated

## COc1cccc(-c2cc(=O)c3ccccc3o2)c1N [PD98059]
[1]; PC3-101P3A11 cells stimulated with FBS or GRP
  inhibition of 101P3A11-mediated ERK phosphorylation: inhibited
